Experimental findings from publication PMC6150229, “Simultaneous Determination of Twenty-Five Compounds in Rat Plasma Using Ultra-High Performance Liquid Chromatography-Polarity Switching Tandem Mass Spectrometry and Its Application to a Pharmacokinetic Study” (Molecules : A Journal of Synthetic Chemistry and Natural …, 2017) are described below.

The structures appear in SMILES notation.

This series in a line: Pharmacokinetic study in sham and myocardial ischemia model rats after a single oral dose of QSKL (UHPLC-psMS/MS of plasma, non-compartmental analysis). To be noted: for AUC(0-inf): AUC0–∞.
[1] abbreviates: QSKL-treated plasma samples, sham and model rats, single oral dose 8.0 g/kg.
The mark [2] stands for this setting: male, Sprague-Dawley, rat, plasma, po, 8 g/kg, AUC0–t, model group (MG, myocardial ischemia) rats, oral administration of QSKL, plasma, mean ± SD, n = 6.
The mark [3] stands for this setting: male, Sprague-Dawley, rat, plasma, po, 8 g/kg, AUC0–t, sham group (SG) rats, oral administration of QSKL, plasma, mean ± SD, n = 6.
Where [4] appears, read: male, Sprague-Dawley, rat, plasma, po, 8 g/kg, model group (MG, myocardial ischemia) rats, oral administration of QSKL, plasma, mean ± SD, n = 6.
Setting [5] is: male, Sprague-Dawley, rat, plasma, po, 8 g/kg, sham group (SG) rats, oral administration of QSKL, plasma, mean ± SD, n = 6.
Setting [6] is: male, Sprague-Dawley, rat, plasma, po, 8 g/kg, Cmax, model group (MG, myocardial ischemia) rats, oral administration of QSKL, plasma, mean ± SD, n = 6.
[7] abbreviates: male, Sprague-Dawley, rat, plasma, po, 8 g/kg, Cmax, sham group (SG) rats, oral administration of QSKL, plasma, mean ± SD, n = 6.
Where [8] appears, read: male, Sprague-Dawley, rat, plasma, po, 8 g/kg, t1/2, model group (MG, myocardial ischemia) rats, oral administration of QSKL, plasma, mean ± SD, n = 6.
Setting [9] is: male, Sprague-Dawley, rat, plasma, po, 8 g/kg, t1/2, sham group (SG) rats, oral administration of QSKL, plasma, mean ± SD, n = 6.
Setting [10] is: rats, after oral dosing QSKL 8.0 g/kg.
Setting [11] is: male, Sprague-Dawley, rat, plasma, po, 8 g/kg, AUC0→t, model (myocardial ischemia, LAD ligation) rats, single oral dose of 8.0 g/kg QSKL, mean ± SD, n = 6.
Where [12] appears, read: male, Sprague-Dawley, rat, plasma, po, 8 g/kg, AUC0→t, sham rats, single oral dose of 8.0 g/kg QSKL, mean ± SD, n = 6.
The mark [13] stands for this setting: male, Sprague-Dawley, rat, plasma, po, 8 g/kg, rats, after oral dosing QSKL 8.0 g/kg.

Method: Twelve male Spargue-Dawley rats (200 ± 20 g) were supplied by Vital River Laboratory Animal Technology Co. Ltd. (Beijing, China). […] The rats were acclimated under a humidity (50%) controlled room at 22–25 °C with a 12 h light-dark cycle, and standard diet and water were provided ad libitum for one week.
Afterwards, all rats were randomly divided into two groups, namely sham and model groups. The myocardial ischemia model was simulated by left anterior descending (LAD) coronary artery ligation [12], whilst the rats belonging to the sham group received the similar surgery, however no actual ligation in LAD. All animals were fasted overnight with free access to water prior to oral dosing. Aliquots (250 μL) of blood were sampled at 0 (pre-dose), 0.08, 0.25, 0.5, 0.75, 1, 1.5, 2, 4, 6, 8, 12, and 24 h from venous around eye socket into heparinized tubes after a single oral dosing of 8.0 g/kg of QSKL and the collected blood samples were immediately subjected for 4000 rpm centrifugation for 10 min at 4 °C to harvest the plasma samples. Each 100 μL aliquot of plasma sample was transferred into another Eppendorf tube and stored at −80 °C till use.
When analysis, 300 μL of internal standards (200 ng/mL for either internal standard) fortified ACN, corresponding to three volumes of plasma, was spiked into each thawed plasma sample and mixed thoroughly. Then, the resulting samples were processed as those calibration samples.
Individual animal plasma concentrations versus time dataset were subjected to a non-compartmental pharmacokinetic analysis using WinNonlin software (ver. 6.4, Pharsight Corp., Sunnyvale, CA, USA). The pharmacokinetic parameters of each analyte including the maximum plasma concentration (Cmax), the time at which Cmax was achieved (Tmax), the terminal elimination half-life (t1/2), and the area under the plasma concentration versus time curve (AUC0→t along with AUC0→∞) were calculated. Moreover, Lz corresponding to the ratio of the dosage and AUC0→∞, as well as mean residence time (MRT) that was defined as the ratio of the area under the first moment curve from time 0 to infinity (AUMC0→∞/AUC0→∞) was also calculated. All results are expressed as mean ± SD. Comparisons regarding the pharmacokinetic parameters were carried out between sham and model groups using Student’s t-test, and p values less than 0.05 were considered to be significant.

Take `COC(=O)C1=CO[C@@H](O[C@@H]2O[C@H](CO)[C@@H](O)[C@H](O)[C@H]2O)[C@@H]2[C@H](C)O[C@@H](O)C[C@H]12` [morroniside]: the “distribution in rat plasma (quantifiable or not)” value under setting [1] is recorded as “quantifiable in most samples”. Further, the AUC(0-t) (commonly the area under the concentration-time curve up to a stated or last time point) under setting [2] was 19.5 ± 3.53 ng·h/mL and the AUC(0-t) under setting [3] turned out to be 16.5 ± 3.91 ng·h/mL. Further, the AUC(0-inf) (as a rule, the area under the concentration-time curve extrapolated to infinity) reads like this: under setting [4], 29.2 ± 4.1 ng·h/mL; under setting [5], 24.9 ± 2.95 ng·h/mL. The Cmax (in general, the highest concentration seen after dosing) by setting is: under setting [6], 4.21 ± 3.41 ng/mL; under setting [7], 2.04 ± 1.07 ng/mL. In addition, the MRT (as a rule, the average time that molecules of a dose stay in the body) was found to be 21.1 ± 8.23 h under setting [4] and 25.1 ± 13.5 h under setting [5]. Further, the time of peak concentration (Tmax) (usually the time at which the peak concentration occurs) runs as follows: under setting [4], 27.6 ± 15 min; under setting [5], 22.2 ± 11.4 min. The half-life (usually the time needed for the level to fall by half in the phase considered) is, setting by setting: under setting [8], 852 ± 347 min; under setting [9], 948 ± 563 min.
Take `O=C(/C=C/c1ccc(O)cc1)c1ccc(O)cc1O` [isoliquiritigenin]: the area under the curve AUC(0-t) reads like this: under setting [2], 1.56 ± 0.668 ng·h/mL; under setting [3], 1.87 ± 1.21 ng·h/mL. Moreover, the AUC(0-inf) by setting is: under setting [4], 1.71 ± 0.74 ng·h/mL; under setting [5], 2.07 ± 1.31 ng·h/mL. In addition, the Cmax reads like this: under setting [6], 0.401 ± 0.103 ng/mL; under setting [7], 0.389 ± 0.137 ng/mL. The MRT came out at 8.14 ± 2.95 h under setting [4] and 7.85 ± 0.6 h under setting [5]. For the same compound, the Tmax amounted to 22.2 ± 16.8 min under setting [4] and 9 ± 7.8 min under setting [5]. The half-life runs as follows: under setting [8], 281 ± 124 min; under setting [9], 262 ± 82.2 min. For the same compound, under setting [10], the “shape of plasma concentration-time profile” value (“shape” for short) is listed as “Multiple-peak profiles”.
Consider `C[C@@H]1O[C@@H](O[C@@H]2[C@@H](O)[C@H](OCCc3ccc(O)c(O)c3)O[C@H](COC(=O)/C=C/c3ccc(O)c(O)c3)[C@H]2O)[C@H](O)[C@H](O)[C@H]1O` [isoacteoside], for which the “distribution in rat plasma (quantifiable or not)” value under setting [1] is “unquantifiable in most QSKL-treated samples”.
In the case of `Cc1coc2c1C(=O)C(=O)c1c-2ccc2c1CCCC2(C)C` [tanshinone IIA], under setting [1], the “distribution in rat plasma (quantifiable or not)” value is recorded as “quantifiable in most samples”. Further, the AUC(0-t) reads like this: under setting [2], 4.28 ± 0.678 ng·h/mL; under setting [3], 3.18 ± 0.664 ng·h/mL; under setting [11], 4.28 ± 0.678 ng·h/mL; under setting [12], 3.18 ± 0.664 ng·h/mL. Besides, the AUC(0-inf) was found to be 7.17 ± 3.08 ng·h/mL under setting [4] and 4.77 ± 1.45 ng·h/mL under setting [5]. For the same compound, the Cmax turned out to be 0.349 ± 0.089 ng/mL under setting [6] and 0.376 ± 0.15 ng/mL under setting [7]. The mean residence time MRT runs as follows: under setting [4], 26.4 ± 14.9 h; under setting [5], 20.9 ± 5.14 h. In addition, the Tmax under setting [4] came out at 523 ± 482 min, the Tmax under setting [13] amounted to 480 min and the Tmax under setting [5] is 40.2 ± 18 min. Moreover, the half-life by setting is: under setting [8], 1080 ± 648 min; under setting [9], 828 ± 243 min.
As to `COc1ccc(-c2coc3cc(O)ccc3c2=O)cc1O` [calycosin], under setting [1], the “distribution in rat plasma (quantifiable or not)” value is reported as “quantifiable in most samples”. Further, the AUC(0-t) runs as follows: under setting [2], 0.89 ± 0.284 ng·h/mL; under setting [3], 1.03 ± 0.181 ng·h/mL. Besides, the AUC(0-inf) by setting is: under setting [4], 1.04 ± 0.268 ng·h/mL; under setting [5], 3.09 ± 1.95 ng·h/mL. The maximum concentration (Cmax) runs as follows: under setting [6], 0.347 ± 0.197 ng/mL; under setting [7], 0.3 ± 0.244 ng/mL. The MRT was determined as 15 ± 4.54 h under setting [4] and 55.9 ± 34.6 h under setting [5]. Further, the Tmax under setting [4] is 16.8 ± 14.4 min and the Tmax under setting [5] came to 19.8 ± 17.4 min. In addition, the half-life is 556 ± 193 min under setting [8] and 2290 ± 1470 min under setting [9].
For the compound `CC1(C)[C@@H](O[C@H]2O[C@H](C(=O)O)[C@@H](O)[C@H](O)[C@H]2O[C@@H]2O[C@H](C(=O)O)[C@@H](O)[C@H](O)[C@H]2O)CC[C@]2(C)[C@H]3C(=O)C=C4[C@@H]5C[C@@](C)(C(=O)O)CC[C@]5(C)CC[C@@]4(C)[C@]3(C)CC[C@@H]12` [glycyrrhizic acid], the “distribution in rat plasma (quantifiable or not)” value under setting [1] was “quantifiable in most samples”. Also, the AUC(0-t) is, setting by setting: under setting [2], 72.8 ± 27.8 ng·h/mL; under setting [3], 37.9 ± 7.11 ng·h/mL; under setting [11], 72.8 ± 27.8 ng·h/mL; under setting [12], 37.9 ± 7.11 ng·h/mL. Also, the AUC(0-inf) runs as follows: under setting [4], 170 ± 69.1 ng·h/mL; under setting [5], 130 ± 69.1 ng·h/mL. Further, the highest concentration (Cmax) by setting is: under setting [6], 8.87 ± 5.97 ng/mL; under setting [7], 3.34 ± 1.12 ng/mL. This compound gave an MRT under setting [4] of 40.2 ± 21.7 h and an MRT under setting [5] of 63.7 ± 34.4 h. For the same compound, the Tmax under setting [5] stood at 87.6 ± 81 min. Moreover, the half-life reads like this: under setting [8], 1670 ± 852 min; under setting [9], 2590 ± 1520 min. Moreover, the “shape” value under setting [10] is on record as “Multiple-peak profiles”.
For the compound `CCN1C[C@]2(COC)[C@H](O)C[C@H](OC)[C@@]34[C@@H]5C[C@@]6(O)[C@H](OC(=O)c7ccccc7)[C@@H]5[C@@](OC(C)=O)([C@@H]([C@H](OC)[C@H]23)[C@@H]14)[C@@H](O)[C@@H]6OC` [aconitine], under setting [1], the “distribution in rat plasma (quantifiable or not)” value is “unquantifiable in most QSKL-treated samples”.
As for `CC1(C)[C@@H](O)CC[C@]2(C)[C@H]3C(=O)C=C4[C@@H]5C[C@@](C)(C(=O)O)CC[C@]5(C)CC[C@@]4(C)[C@]3(C)CC[C@@H]12` [glycyrrhetic acid], the AUC(0-t) is, setting by setting: under setting [2], 5040 ± 1860 ng·h/mL; under setting [3], 3200 ± 298 ng·h/mL; under setting [11], 5040 ± 1860 ng·h/mL; under setting [12], 3200 ± 298 ng·h/mL. Under setting [4], this compound displayed an area under the curve AUC(0-inf) of 14500 ± 5750 ng·h/mL. The Cmax turned out to be 230 ± 57.1 ng/mL under setting [7]; 230 ± 57.1 ng/mL (male, Sprague-Dawley, rat, plasma, po, 8 g/kg, Cmax, sham rats, single oral dose of 8.0 g/kg QSKL, mean ± SD, n = 6); 376 ± 196 ng/mL (model (myocardial ischemia, LAD ligation) rats, single oral dose of 8.0 g/kg QSKL, mean ± SD, n = 6); 376 ± 196 ng/mL (model group (MG, myocardial ischemia) rats, oral administration of QSKL, plasma, mean ± SD, n = 6). The MRT under setting [4] was 41.9 ± 21.5 h. The time to peak (Tmax) was 798 ± 513 min under setting [4], greater than 720 min under setting [13] and 840 ± 294 min under setting [5]. This compound gave a half-life under setting [8] of 1580 ± 936 min. For the same compound, the “shape” value under setting [10] was “Multiple-peak profiles”.
As to `C=CC(C)(C)c1cc(/C=C/C(=O)c2ccc(O)cc2)c(OC)cc1O` [licochalcone A], the “distribution in rat plasma (quantifiable or not)” value under setting [1] is reported as “unquantifiable in most QSKL-treated samples”.
Take `C[C@]1(OC(=O)/C=C/c2ccccc2)C[C@@H](O)[C@]2(O)C=CO[C@@H](O[C@@H]3O[C@H](CO)[C@@H](O)[C@H](O)[C@H]3O)[C@@H]21` [harpagoside]: the AUC(0-t) under setting [2] amounted to 2.4 ± 2.04 ng·h/mL. Under setting [4], the area under the curve AUC(0-inf) is 2.2 ± 1.77 ng·h/mL, the mean residence time (MRT) was 18.7 ± 16.7 h and the Tmax came to 33.6 ± 22.8 min. Besides, the highest level (male, Sprague-Dawley, rat, plasma, po, 8 g/kg, Cmax, model (myocardial ischemia, LAD ligation) rats, single oral dose of 8.0 g/kg QSKL, mean ± SD, n = 6) (Cmax) was 1.02 ± 0.692 ng/mL. Further, the Cmax under setting [6] came out at 1.02 ± 0.692 ng/mL. The half-life under setting [8] was 966 ± 678 min. Further, where the note is “plasma of the model group, single oral dose 8.0 g/kg QSKL”, the “distribution in rat plasma (quantifiable or not)” value is “always quantifiable”. Besides, under “samples from the sham group, single oral dose 8.0 g/kg QSKL”, the “distribution in rat plasma (quantifiable or not)” value is recorded as “lower than its LOQ”.
As for `COc1ccc(-c2coc3cc(O)ccc3c2=O)cc1` [formononetin], under setting [1], the “distribution in rat plasma (quantifiable or not)” value is “quantifiable in most samples”. This compound showed an AUC(0-t) under setting [2] of 1.2 ± 0.482 ng·h/mL and an AUC(0-t) under setting [3] of 0.966 ± 0.351 ng·h/mL. Also, the total exposure AUC(0-inf) stood at 1.32 ± 0.472 ng·h/mL under setting [4] and 1.22 ± 0.609 ng·h/mL under setting [5]. The Cmax was 0.47 ± 0.291 ng/mL under setting [6] and 0.243 ± 0.127 ng/mL under setting [7]. In addition, the MRT reads like this: under setting [4], 5.47 ± 2.56 h; under setting [5], 7 ± 2.97 h. Moreover, the Tmax by setting is: under setting [4], 30.6 ± 27.6 min; under setting [5], 36.6 ± 31.8 min. Besides, the half-life reads like this: under setting [8], 229 ± 113 min; under setting [9], 282 ± 139 min.
